Reference: patent publication US12286423B2, “Antiviral 1,3-di-oxo-indene compounds” (Novartis AG, priority 2020, dated 2025)

Assays:
[1] = test system: rhinoviruses and enteroviruses; settings: cited from earlier work
[2] = cited from earlier work
[3] = cited from earlier work; for bioavailability / metabolization and excretion: in vivo
[4] = in vivo; cited from earlier work
[5] = cited from earlier work; remark: listed apart in the source
[6] = test system: 48 rhinovirus types and coxsackievirus A21, B3, enterovirus 70 and echovirus 11; settings: cited from earlier work
HRV A16 = HRV A16 CPE inhibition assay; type: cell-based; settings: Human rhinovirus sp.; HRV A16, cytopathic effect inhibition
Method: (§1) Bioactivity of the Compounds of the Invention was Determined Using the Following Methods. Determination of Drug Efficacy Against Picornaviruses Using Cytopathic Effect (CPE) Inhibition Assay
(§2) In the assay, HeLa (human cervical cancer cells), MRC-5 (human fetal lung fibroblast cells), and RD cells (derived from human rhabdomyosarcoma) were employed. For comparison, ribavirin (Riv), Pleconaril (pleco), and […] (BTA) were used as controls. Reagents were dissolved at a concentration of 10-40 mg/ml in 100% dimethyl sulfoxide (DMSO). Water-soluble reagents were dissolved in PBS (−) solution and stored at −20° C. On the day of the experiment, they were used in 3 fold to 5 fold concentrations in such a manner that the concentration of dimethyl sulfoxide in each well was between 0.5% and 1%.
(§3) Pharmaceutical efficacy was determined using a virus-induced cytopathic effect (CPE) inhibition assay. In this regard, after cells suitable for viruses were grown in 96-well plates, dilutions of viruses in DME supplemented with 2% FBS (DME/2% FBS) or MEM supplemented with 2% FBS (MEM/2% FBS) were inoculated in an amount of […] with a concentration corresponding to 100 CCID50 (50% cell culture infective dose) into each well of the plates, and incubated for 30 min-1 hr at 33° C. or 37° C. to allow the viruses to adsorb onto the cells. The culture medium was removed before aliquots of drug dilutions with various concentrations were added in an amount of 100 μl to each well. While HRV (human rhinovirus) was grown at 33° C., the other viruses were incubated in a 37° C. CO2 incubator for 2-3 days. Alternatively, the cells were cultured for 2-3 days without removal of the medium after they were added with 50 μl of each drug dilution having a 2-fold higher concentration and then with 50 μl of the virus dilution. Viruses were incubated in host HeLa cells at 37° C. for 2-3 days in DME/2% or MEM/2% FBS.
(§4) For HeLa cells, the drugs were measured for EC50 (50% maximal effective concentration), which is the concentration of a drug inducing a response halfway between the baseline and maximum, using an MTT assay. With regard to RD and MRC-5 cells, CPE was determined using FDA (Fluorescein diacetate) or MTT. In order to determine the effect of drug toxicity on efficacy results, at the time of inoculation with the virus, mock-infection was also included. A virus-free medium was added to a cell culture, which was then subjected to the same treatment as the mock-infected cells inoculated with the virus. That is, the medium was removed after one hour of incubation, and dilutions of drugs in the medium were added once more. Following incubation for 2-3 days, the cells were observed under a microscope and the drugs were determined for CC50 (50% cytotoxic concentration) at which 50% of the cells were killed, using an MTT assay in which counts of viable cells in mock-infected wells containing drugs were compared to those of viable cells in control wells containing no drugs. In an FDA hydrolysis assay, FDA was added to each well after removal of the medium, and incubated for 20-30 min before fluorescence intensity was measured using a spectrofluorometer to determine CPE in the same manner as in MTT.
(§5) In addition, antiviral effects can be calculated using Mathematical Formula 2 below: Antiviral Effect=[A(Drug/Virus)−A(Virus Control)/A(Cell control)−A(Virus Control)]
(§6) If the survival rate is 100%, its antiviral effect is 100% whereas if the survival rate is 0%, its antiviral effect is none. […]
(§7) Specifically, cells grown to confluence in 96-well plates were infected with 100 50% cell culture infected doses (CCID50) of virus. After an adsorption period of 2 hrs at 37° C., the virus was removed and serial dilutions of the compounds were added. […] After removal of the medium, 90 μl of a culture medium and 10 μl of MTS-phenazine methosulfate (Promega, Leiden, The Netherlands) were added to each well. […]

HRV A29 = HRV A29 CPE inhibition assay; type: cell-based; settings: Human rhinovirus sp.; HRV A29, cytopathic effect inhibition
Method: as §1, §2, §3, §4, §5, §6, §7

HRV A1B = HRV A1B CPE inhibition assay; type: cell-based; settings: Human rhinovirus sp., cytopathic effect inhibition, read-out: HRV A1B_CPE (EC50 μM)
Method: as §1, §2, §3, §4, §5, §6, §7

HRV B14 = HRV B14 CPE inhibition assay; type: cell-based; settings: Human rhinovirus sp.; HRV B14, cytopathic effect inhibition
Method: as §1, §2, §3, §4, §5, §6, §7

C15_C3 REPLICON = assay: C15_C3 replicon assay; type: cell-based
[7] = Cytotoxicity (CC50) in mock-infected cells, MTT assay; type: cell-based; settings: human, HeLa cells (mock-infected), 50% cytotoxic concentration, read-out: CYTOTOX (CC50 μM)
Method: as §4
That is, the survival rate (% survival) of mock-infected cells for cytotoxicity measurement was calculated using the Mathematical Formula 1 below: Cell Drug=Survival by [A(Drug)−A(Background solution)/A(Cell control)−A(Background×100% Solution)]
While 100% cell survival means no cytotoxicity of the drug, the highest cytotoxicity is reflected by 0% cell survival. The 50% cytotoxic concentration was defined as the concentration required to reduce the cell number by 50%. This concentration of the drug is represented as CC50. Higher values mean lower cytotoxicity. […]
In Mathematical Formulae 3 and 4 above, • OD (CC) represents the OD of the background cell culture that is neither induced by a virus nor treated by chemical, • OD (VC) represents the OD of the control cell culture that is induced by a virus but not treated by chemical, • OD (Virus+Compound) represents the OD of the cell culture infected by a virus that has been treated with a concentrated compound, • OD (Compound) represents the OD of the cell culture that has been treated with a concentrated compound only, and • OD (Blank) represents the OD of the well to which only the cell culture has been added.
The effective concentration (EC50) represents the concentration of a drug at which 50% of cells are allowed to survive by CPE of an induced virus, and the cytotoxicity concentration (CC50) represents the concentration of a drug at which a compound has killed 50% of cells, and they were calculated by the logarithmic interpolation.

SMILES	EC50 (HRV A16)	EC50 (HRV A29)	EC50 (HRV A1B)	EC50 (HRV B14)	EC50 (C15_C3 REPLICON)	CC50 [7]	other results
CCC(=O)C(CCCCCCOc1ccc(OC)cc1Cl)C(=O)CC [Arildone]	–	–	–	–	–	–	antiviral effects in the cell culture [1]: very good antiviral effects; solubility [2]: poor solubility; bioavailability [3]: low bioavailability
Cc1cc(CCCCCCCOc2ccc(C3=NCCO3)cc2)on1 [disoxaril]	–	–	–	–	–	–	antiviral effects in the cell culture [1]: very good antiviral effects; bioavailability [3]: low bioavailability; metabolization and excretion [3]: rapid metabolization and excretion
Cc1cc(CCCCCOc2c(Cl)cc(C3=NCCO3)cc2Cl)on1 [WIN 54954]	–	–	–	–	–	–	metabolization and excretion [3]: rapid metabolization and excretion; side effects [4]: skin rash
CCOC(=O)c1ccc(OCCC2CCN(c3ccc(C)nn3)CC2)cc1 [pirodavir]	–	–	–	–	–	–	antiviral effects in the cell culture [1]: very good antiviral effects
CC(C)S(=O)(=O)n1c(N)nc2ccc(/C(=N/O)c3ccccc3)cc21 [Enviroxime]	–	–	–	–	–	–	pharmacokinetics in clinical studies [5]: bad pharmacokinetics; therapeutic effects in clinical studies [5]: insignificant or few therapeutic effects
CCOC(=O)/C=C/[C@H](C[C@@H]1CCNC1=O)NC(=O)[C@@H](CC(=O)[C@@H](NC(=O)c1cc(C)on1)C(C)C)Cc1ccc(F)cc1 [AG 7088]	–	–	–	–	–	–	concentration range of effect in the cell culture [6]: nanomolar concentration range
Cc1c(S(C)(=O)=O)c[nH]c1C(=O)N[C@]12C(=O)c3c(N)cccc3[C@@]1(O)Oc1cc([C@H]3C[C@@H]3C)ccc12 [Example 28, N-((4bR,9bR)-1-amino-4b-hydroxy-7-((1S,2S)-2-methylcyclopropyl)-10-oxo-4b,10-dihydro-9bH-indeno[1,2-b]benzofuran-9b-yl)-3-methyl-4-(methylsulfonyl)-1H-pyrrole-2-carboxamide]	0.16 µM	0.045 µM	0.037 µM	0.016 µM	1.85 µM	19.8 µM	–
Cc1cc(CCCOc2c(C)cc(-c3noc(C(F)(F)F)n3)cc2C)on1 [Pleconaril]	–	–	–	–	–	–	oral bioavailability ([3]; oral): very good oral bioavailability
Cc1cc(S(=O)(=O)N2CCN(C)CC2)[nH]c1C(=O)N[C@]12C(=O)c3c(N)cccc3[C@@]1(O)Oc1cc([C@H]3C[C@@H]3C)ccc12 [Example 14, N-((4bR,9bR)-1-amino-4b-hydroxy-7-((1S,2S)-2-methylcyclopropyl)-10-oxo-4b,10-dihydro-9bH-indeno[1,2-b]benzofuran-9b-yl)-3-methyl-5-((4-methylpiperazin-1-yl)sulfonyl)-1H-pyrrole-2-carboxamide]	0.023 µM	0.03 µM	0.016 µM	0.016 µM	0.516 µM	21.9 µM	–
C[C@H](c1ccc2c(c1)O[C@]1(O)c3cccc(N)c3C(=O)[C@]21NC(=O)c1cccc(O)n1)C1CC1 [Example 3, N-((4bR,9bR)-1-amino-7-((S)-1-cyclopropylethyl)-4b-hydroxy-10-oxo-4b,10-dihydro-9bH-indeno[1,2-b]benzofuran-9b-yl)-6-hydroxypicolinamide]	0.057 µM	0.02 µM	0.033 µM	0.016 µM	4.81 µM	32.3 µM	–
Cc1cc(S(=O)(=O)N2CCN(C)CC2)[nH]c1C(=O)NC12C(=O)c3c(N)cccc3C1(O)Oc1cc(C(C)C)ccc12 (stereo not shown) [Example 13, N-(1-amino-4b-hydroxy-7-isopropyl-10-oxo-4b,10-dihydro-9bH-indeno[1,2-b]benzofuran-9b-yl)-3-methyl-5-((4-methylpiperazin-1-yl)sulfonyl)-1H-pyrrole-2-carboxamide]	0.027 µM	0.05 µM	0.016 µM	0.016 µM	0.682 µM	32.1 µM	–
C[C@@H](c1ccc2c(c1)O[C@]1(O)c3cccc(N)c3C(=O)[C@]21NC(=O)c1cccc(O)n1)C1CC1 [Example 8, N-((4bR,9bR)-1-amino-7-((R)-1-cyclopropylethyl)-4b-hydroxy-10-oxo-4b,10-dihydro-9bH-indeno[1,2-b]benzofuran-9b-yl)-6-hydroxypicolinamide]	0.068 µM	0.035 µM	0.031 µM	0.016 µM	5.33 µM	35 µM	–
Cc1c(C(=O)N[C@]23C(=O)c4c(N)cccc4[C@@]2(O)Oc2cc([C@H](C)C4CC4)ccc23)[nH]c(=O)n1C [Example 22, N-((4bR,9bR)-1-amino-7-((R)-1-cyclopropylethyl)-4b-hydroxy-10-oxo-4b,10-dihydro-9bH-indeno[1,2-b]benzofuran-9b-yl)-1,5-dimethyl-2-oxo-2,3-dihydro-1H-imidazole-4-carboxamide]	0.063 µM	0.023 µM	0.041 µM	0.016 µM	1.89 µM	34.9 µM	–
